PubChem BioAssay (NCI)
Where “and” joins values, the source holds several entries; their conditions need not be identical. Equal entries are not always repeated.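 Tested at 5 concentrations; 48 h exposure; 96-well plates; endpoints linearly interpolated, else capped at highest concentration. At the GI50, growth is halved. TGI: total growth inhibition.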

Columns and labels:
Test in all cases: growth of human tumour cells (NCI), 48 h
KM12 colon = system: KM12 colon
IGROV1 ovarian = system: IGROV1 ovarian
NCI-H522 lung = system: NCI-H522 lung
SR leukemia = system: SR leukemia
CAKI-1 renal = system: CAKI-1 renal
SN12C renal = system: SN12C renal
MDA-MB-231 breast = system: MDA-MB-231 breast
U251 CNS = system: U251 CNS
RXF 393 renal = system: RXF 393 renal
NCI/ADR-RES ovarian = system: NCI/ADR-RES ovarian

| SMILES | GI50 (KM12 colon) | TGI (KM12 colon) | GI50 (IGROV1 ovarian) | TGI (IGROV1 ovarian) | GI50 (NCI-H522 lung) | TGI (NCI-H522 lung) | GI50 (SR leukemia) | TGI (CAKI-1 renal) | GI50 (SN12C renal) | TGI (SN12C renal) | GI50 (MDA-MB-231 breast) | TGI (MDA-MB-231 breast) | GI50 (U251 CNS) | TGI (U251 CNS) | GI50 (RXF 393 renal) | TGI (RXF 393 renal) | GI50 (NCI/ADR-RES ovarian) | TGI (SR leukemia) | GI50 (CAKI-1 renal) | TGI (NCI/ADR-RES ovarian) |
| --- | --- | --- | --- | --- | --- | --- | --- | --- | --- | --- | --- | --- | --- | --- | --- | --- | --- | --- | --- | --- |
| CC[C@H]1CN2CCc3cc(OC)c(OC)cc3[C@@H]2C[C@@H]1C[C@H]1NCCc2c1[nH]c1ccc(O)cc21 | 0.0507 µM and 0.0994 µM | 0.283 µM and 1.37 µM and 0.519 µM | 0.0267 µM and 0.0328 µM | 0.0806 µM and 0.159 µM and 0.196 µM | 0.00347 µM and 0.00354 µM | 0.0164 µM and 0.0108 µM | 0.0152 µM and 0.0333 µM | 0.614 µM and 0.68 µM | 0.0228 µM and 0.0349 µM | 0.0741 µM and 0.136 µM and 0.19 µM | 0.0153 µM | 0.0483 µM | 0.0222 µM and 0.0255 µM | 0.0702 µM and 0.075 µM and 0.154 µM | 0.0194 µM and 0.0351 µM | 0.0629 µM and 0.252 µM and 0.183 µM | 0.0161 µM |  |  |  |
| Cc1[nH]c(/C=C2\C(=O)Nc3ccccc32)c(C)c1CCC(=O)O | 7.79 µM | 51.2 µM and > 100 µM |  | > 100 µM |  | > 100 µM | 19.7 µM | 68.1 µM and > 100 µM | 24.7 µM | > 100 µM | 20.7 µM | > 73.7 µM and 75.9 µM | 38.1 µM | > 100 µM | 19.2 µM | 63.3 µM and 90.5 µM |  | 48.7 µM and 57.9 µM | 15.9 µM | > 100 µM |
| CCCOc1ccc2sc(NC(=O)OC)nc2c1 | 0.627 µM | > 100 µM |  | > 100 µM | 1.69 µM | > 25 µM | 0.36 µM | > 100 µM | 6.2 µM | > 100 µM | > 100 µM | > 100 µM | 2.42 µM | > 100 µM | 2.71 µM | > 29.3 µM | 0.793 µM | > 100 µM | 2.87 µM | > 47.5 µM |
| Cn1cc(C2=C(c3cccc(Br)c3)C(=O)NC2=O)c2ccccc21 | 8.43 µM | > 25 µM | 11 µM | > 25 µM | 10.4 µM | > 25 µM | 7.33 µM | > 25 µM | 13.2 µM | > 25 µM | 18.7 µM | > 25 µM | 12.3 µM | > 25 µM | 8.3 µM | > 25 µM | 8.85 µM | > 25 µM | 9.63 µM | > 25 µM |
| O=C1NC(=NCCc2cccc(Cl)c2)S/C1=C\c1ccc2ncccc2c1 | 1.32 µM | > 25 µM | > 25 µM | > 25 µM | > 25 µM | > 25 µM | 0.403 µM | > 25 µM | > 25 µM | > 25 µM | > 25 µM | > 25 µM | > 25 µM | > 25 µM | > 25 µM | > 25 µM | > 25 µM | > 25 µM | > 25 µM | > 25 µM |
| Cc1cc(C)c(/C=C2\C(=O)Nc3ccc(NC(=O)CCCCCCC(=O)NO)cc32)[nH]1 | 7.2 µM | > 100 µM | 2.86 µM | > 100 µM | 0.208 µM | 1.82 µM | 0.416 µM | > 100 µM | > 20.4 µM | > 100 µM | 1.37 µM | 60 µM | 0.529 µM | 10.4 µM | 1.17 µM | > 75.2 µM | > 100 µM | > 100 µM | > 100 µM | > 100 µM |
